The results in this text go back to patent publication US20160297761A1, “NOVEL INHIBITORS OF GLUTAMINASE” (RHIZEN PHARMACEUTICALS SA, priority 2014, published 2016).

Each structure is given as a SMILES string. Like-named read-outs stand apart in the source and are kept apart here.

In data set [1] the target is T1, L-glutaminase present in mice brain homogenate (Glutaminase(Brain)) (Mus musculus, UniProt D3Z7P3).
T1 sequence (D3Z7P3 55-674): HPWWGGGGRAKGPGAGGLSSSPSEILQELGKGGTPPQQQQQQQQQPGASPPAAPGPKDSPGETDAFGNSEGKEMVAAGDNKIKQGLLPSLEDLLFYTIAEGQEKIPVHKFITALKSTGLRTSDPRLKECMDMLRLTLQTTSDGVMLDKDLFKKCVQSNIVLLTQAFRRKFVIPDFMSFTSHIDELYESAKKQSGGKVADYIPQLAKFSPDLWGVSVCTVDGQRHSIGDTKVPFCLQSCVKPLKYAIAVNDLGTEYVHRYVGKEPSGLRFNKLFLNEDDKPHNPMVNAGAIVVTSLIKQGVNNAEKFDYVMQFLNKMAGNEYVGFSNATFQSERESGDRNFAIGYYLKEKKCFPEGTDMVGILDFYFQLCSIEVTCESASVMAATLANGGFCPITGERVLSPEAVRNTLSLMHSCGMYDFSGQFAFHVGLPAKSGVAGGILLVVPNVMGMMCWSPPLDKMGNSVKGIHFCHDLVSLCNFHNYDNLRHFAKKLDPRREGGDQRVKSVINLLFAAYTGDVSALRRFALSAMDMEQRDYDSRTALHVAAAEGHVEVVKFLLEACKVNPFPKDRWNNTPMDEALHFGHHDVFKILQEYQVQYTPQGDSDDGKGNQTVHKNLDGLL
In words: Glutaminase enzyme activity using glutaminase enzyme from mice brain/kidney homogenate (Nessler's reagent, ammonia). In kind it is biochemical. The note with it: for inhibition at 0.1 µM: read-out: Glutaminase(Brain) activity % inhibition 0.1 μM; for inhibition at 1 µM: read-out: Glutaminase(Brain) activity % inhibition @1 μM. On the procedure: Assay 3: Determination of Glutaminase Enzyme Activity Using Glutaminase
Enzyme from Mice Brain/Kidney
Step 1: Preparation of Tissue Homogenates: Male Balb/c mice were administered 0.28 M ammonium chloride in drinking water for 7 days. The animals were sacrificed and brain/kidney organs collected on dry ice. […] The tissue was homogenized and supernatants were stored at −80° C. until the enzyme assay was performed.
Aim: Compounds were assessed for their ability to inhibit the enzymatic activity of L-glutaminase present in mice brain/kidney homogenate.
Protocol: The assay was performed using a colorimetric method using Nessler's Reagent by quantifying the amount of ammonia formed as a by product during the enzymatic conversion of L-glutamine to glutamate. In the routine assay, 16 μl of tissue homogenate is added to 33 μl of Tris-Hcl phosphate buffer (pH 8) along with 1 μl of DMSO/test compound containing the desired final concentration and vortexed briefly. 50 μl of 20 mM L-glutamine Tris buffer is added to start the reaction and incubated for 15 minutes at 37° C. The ammonia formed is detected by adding 20 μl of reaction mixture to cold water in a 96 well plate followed by 20 μl of Nessler's reagent. The colour developed is measured at 450 nm. Data Analysis: Activity of the test compound is reported as % inhibition and the data is analyzed using Graphpad Prism (Graphpad software; San Diego Calif.) for IC50 determination.

By inhibition is commonly meant the relative decrease from the control value, in per cent. As a reminder, the melting point is the temperature, or range, at which the solid turns liquid. Turning to `Cc1nc(NC(=O)Cc2cccc(OC(F)(F)F)c2)ccc1CCCCc1nnc(NC(=O)Cc2ccccn2)s1` [Example-9, N-(6-Methyl-5-(4-(5-(2-(pyridin-2-yl)acetamido)-1,3,4-thiadiazol-2-yl)butyl)pyridin-2-yl)-2-(3-(trifluoromethoxy)phenyl)acetamide], the melting point lay within 96 to 101 °C. Moreover, the inhibition at 0.1 µM in data set [1] (0.1 μM, mice brain homogenate) was under 25%. The inhibition at 1 µM in data set [1] (mice brain homogenate) was under 25%.

With `O=C(Cc1cccc(OC(F)(F)F)c1)Nc1ccc(CCCCc2nnc(NC(=O)Cc3cccnc3)s2)cn1` [Example-10, 2-(Pyridin-3-yl)-N-(5-(4-(6-(2-(3-(trifluoromethoxy)phenyl)acetamido)pyridin-3-yl)butyl)-1,3,4-thiadiazol-2-yl)acetamide], the melting point was 176 to 178 °C. In addition, the inhibition at 0.1 µM in data set [1] (0.1 μM, mice brain homogenate) fell in the range of 75 to 100%. Further, in data set [1] (mice brain homogenate), the inhibition at 1 µM was in the range of 75 to 100%.

`Cc1ccc(F)c(C(=O)Nc2nnc(CCCCc3ccc(NC(=O)Cc4cccc(OC(F)(F)F)c4)nc3)s2)n1` [Example-37, 3-Fluoro-6-methyl-N-(5-(4-(6-(2-(3-(trifluoromethoxy)phenyl)acetamido)pyridin-3-yl)butyl)-1,3,4-thiadiazol-2-yl)picolinamide] displayed a melting point of 130 to 133 °C. In addition, in data set [1] (0.1 μM, mice brain homogenate), the inhibition at 0.1 µM is under 25%. In addition, the inhibition at 1 µM in data set [1] (mice brain homogenate) was under 25%.

In the case of `O=C(Cc1cccc(OC(F)(F)F)c1)Nc1ccc(CCCCc2ccc(NC(=O)Cc3cccc(OC(F)(F)F)c3)nc2)cn1` [Example-40, N,N′-(5,5′-(Butane-1,4-diyl)bis(pyridine-5,2-diyl))bis(2-(3-(trifluoromethoxy)phenyl)acetamide)], the melting point was 153 to 155 °C. In addition, the inhibition at 0.1 µM in data set [1] (0.1 μM, mice brain homogenate) is under 25%. In data set [1] (mice brain homogenate), the inhibition at 1 µM is under 25%.

In turn, `O=C(Cc1ccccn1)Nc1nnc(CCCCc2ccc(NC(=O)Cc3cccc(OC(F)(F)F)c3)c(F)c2)s1` [Example-41, N-(5-(4-(3-Fluoro-4-(2-(3-(trifluoromethoxy)phenyl)acetamido)phenyl)butyl)-1,3,4-thiadiazol-2-yl)-2-(pyridin-2-yl)acetamide] showed a melting point of 164 to 168 °C. Moreover, the inhibition at 0.1 µM in data set [1] (0.1 μM, mice brain homogenate) is under 25%. Further, the inhibition at 1 µM in data set [1] (mice brain homogenate) was under 25%.

`O=C(Cc1cccnc1)Nc1nnc(CCCCc2ccc(NC(=O)Cc3cccc(OC(F)(F)F)c3)c(F)c2)s1` [Example-42, N-(5-(4-(3-Fluoro-4-(2-(3-(trifluoromethoxy)phenyl)acetamido)phenyl)butyl)-1,3,4-thiadiazol-2-yl)-2-(pyridin-3-yl)acetamide] had a melting point of 176 to 180 °C. Moreover, the inhibition at 0.1 µM in data set [1] (0.1 μM, mice brain homogenate) is under 25%. The inhibition at 1 µM in data set [1] (mice brain homogenate) was under 25%.

In turn, `O=C(Cc1ccccc1)Nc1nnc(C2CCC(c3nnc(NC(=O)Cc4ccccc4)s3)CC2)s1` (stereo not drawn) [Example-101, N,N′-(5, 5′-(cyclohexane-1,4-diyl)bis(1,3,4-thiadiazole-5,2-diyl))bis(2-phenylacetamide)] gave a melting point of 281 to 283 °C.

As to `O=C(Cc1cccnc1)Nc1nnc(C2CCC(c3nnc(NC(=O)Cc4cccnc4)s3)CC2)s1` (stereo not drawn) [Example-102, N,N′-(5,5′-(cyclohexane-1,4-diyl)bis(1,3,4-thiadiazole-5,2-diyl))bis(2-(pyridin-3-yl)acetamide)], the melting point was in the range of 180 to 182 °C. Also, the inhibition at 0.1 µM in data set [1] was under 25%.

Compound `O=C(Cc1cccnc1)Nc1nnc(CC2CCC(Cc3nnc(NC(=O)Cc4cccnc4)s3)CC2)s1` (stereo not drawn) [Example-103, N,N′-(5,5′-(cyclohexane-1,4-diylbis(methylene))bis(1,3,4-thiadiazole-5,2-diyl))bis(2-(pyridin-3-yl)acetamide)] returned a melting point of 268 to 270 °C. Besides, the inhibition at 0.1 µM in data set [1] (0.1 μM, mice brain homogenate) was 25 to 50%. The inhibition at 1 µM in data set [1] (mice brain homogenate) fell in the range of 25 to 50%.
